PMC12444472, “BCI inhibits MKP3 by targeting the kinase-binding domain and disrupting ERK2 interaction” (The Journal of Biological Chemistry, 2025)

Columns and labels:
Assay in all cases: NMR titration (1H-15N HSQC)
Assay type in all cases: binding
MKP2^KBD = molecular target: T1, MKP2^KBD (Homo sapiens, UniProt Q13115); conditions: molar ratio to BCI 1:13
T1 construct: MKP2(5–159) (MKP2^KBD); made in house; host or cells: Escherichia coli BL21(DE3)
T1 sequence (Q13115 5-159): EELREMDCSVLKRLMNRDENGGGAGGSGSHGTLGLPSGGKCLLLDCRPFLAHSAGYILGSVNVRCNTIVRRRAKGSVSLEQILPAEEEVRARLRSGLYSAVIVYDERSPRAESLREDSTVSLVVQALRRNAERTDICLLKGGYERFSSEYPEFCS
Description: (§1) NMR data were collected at 298 K on a Bruker AVANCE NEO 800 MHz spectrometer (Bruker BioSpin) equipped with a ^1H&^19F/^13C/^15N TCI cryogenic probe. Backbone resonances of MKP3^1–154 were assigned using 2D/3D experiments, including 2D ^1H–^15N HSQC and 3D ^1H/^13C/^15N CBCA(CO)NH, HNCACB, HNCO, and HN(CA)CO, performed with uniformly ^13C/^15N labeled protein at a final concentration of 0.39 mM in buffer containing 20 mM imidazole (pH 6.0), 100 mM NaCl, 5 mM DTT, 0.5 mM EDTA, and 5% (v/v) D2O. The buffer used for backbone resonance assignment was similar to that used for the previously reported NMR structure ([15]). NMR titration experiments were conducted using ^15N-labeled MKP3^1–154, MKP3^14–152, MKP3^204–350, MKP1^1–141, MKP2^5–159, MKPX^1–140, MKP4^1–143, and MKP5^139–287. 2D ^1H–^15N HSQC spectra of ^15N-labeled MKPs^KBD (0.1 mM) were acquired in the absence and presence of BCI (50 mM stock in DMSO-d6) in buffer containing 50 mM KH2PO4–K2HPO4 (pH 7.2), 100 mM KCl, 1 mM Tris(2-carboxyethyl)phosphine hydrochloride, 1 mM EDTA, and 5% (v/v) D2O. Control experiments, in which only the corresponding volume of DMSO-d6 was added to ^15N-labeled proteins, were performed to exclude possible effects of DMSO on the interactions. For ^15N T1 measurements, the relaxation delay times were set to 20 (×2), 100, 200 (×2), 300, 400, 600 (×2), 800, 1200, and 1600 ms. For ^15N T2 measurements, the delay times were 7.84, 15.68 (×2), 23.52, 31.36 (×2), 39.2, 47.04 (×2), 54.88, 62.72, 78.4, 94.08, and 109.76 ms. The relaxation rates R1 (1/T1) and R2 (1/T2) for each residue were determined by fitting the peak intensities from spectra acquired at the various delay times to a single-exponential decay function: I/I0 = exp(-R1,2·t), where I0 is the intensity at t = 0, and I is the intensity at a delay time t. Repeated measurements were used to estimate the uncertainties of the R1 and R2 values via Monte Carlo analysis. Heteronuclear steady-state ^1H–^15N NOE experiments were acquired in an interleaved mode, with 5 s of ^1H saturation for NOE build-up and 5 s of relaxation delay for the reference spectra. Repeated experiments were performed to estimate uncertainties, and the propagated error for each NOE value was calculated using the following equation: σNOE = NOE × ((σsat/Isat)^2+(σunsat/Iunsat)^2)^1/2, where σsat and σunsat are the SDs of the saturated and unsaturated spectra, respectively, and Isat and Iunsat are the corresponding signal intensities. NMR data were processed using TopSpin 4.1.1 (Bruker BioSpin) or NMRPipe ([54]) and analyzed with POKY ([55]).

MKPX^KBD = molecular target: T2, MKPX^KBD (Homo sapiens, UniProt Q16829); conditions: molar ratio 1:2
T2 construct: MKPX(1–140) (MKPX^KBD); made in house; host or cells: Escherichia coli BL21(DE3)
T2 sequence (Q16829 1-140 isoform Q16829-2): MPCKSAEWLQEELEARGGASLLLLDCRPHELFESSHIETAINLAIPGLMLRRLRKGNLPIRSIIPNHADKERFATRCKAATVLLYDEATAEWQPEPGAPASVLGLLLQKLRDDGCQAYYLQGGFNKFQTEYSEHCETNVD
Description: as §1

MKP4^KBD = molecular target: T3, MKP4^KBD (Homo sapiens, UniProt Q99956); conditions: molar ratio 1:15
T3 construct: MKP2^5–159, MKPX^1–140, MKP4^1–143, and MKP5^139–287; made in house; host or cells: Escherichia coli BL21(DE3)
T3 sequence (Q99956 1-143): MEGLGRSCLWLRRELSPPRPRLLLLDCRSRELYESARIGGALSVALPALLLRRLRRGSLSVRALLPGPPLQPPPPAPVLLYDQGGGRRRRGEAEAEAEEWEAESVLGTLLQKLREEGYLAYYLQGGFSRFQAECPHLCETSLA
Description: as §1

MKP3^CD = molecular target: T4, MKP3^CD (Homo sapiens, UniProt Q16828)
T4 construct: ^15N-labeled MKP3^1–154, MKP3^14–152, MKP3^204–350; made in house; host or cells: Escherichia coli BL21(DE3)
T4 sequence (Q16828 204-350): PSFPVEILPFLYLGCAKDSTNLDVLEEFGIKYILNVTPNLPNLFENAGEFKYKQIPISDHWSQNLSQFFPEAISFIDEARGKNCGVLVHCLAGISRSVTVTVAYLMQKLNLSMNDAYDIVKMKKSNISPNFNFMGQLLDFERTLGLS
Description: as §1

MKP1^KBD = molecular target: T5, MKP1^KBD (Homo sapiens, UniProt P28562); conditions: molar ratio 1:15
T5 construct: MKP1(1–141) (MKP1^KBD); made in house; host or cells: Escherichia coli BL21(DE3)
T5 sequence (P28562 1-141): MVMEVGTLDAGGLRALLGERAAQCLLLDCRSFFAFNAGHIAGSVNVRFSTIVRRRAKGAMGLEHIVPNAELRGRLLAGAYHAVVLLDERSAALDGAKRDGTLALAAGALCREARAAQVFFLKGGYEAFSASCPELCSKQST
Description: as §1

MKP5^KBD = molecular target: T6, MKP5^KBD (Homo sapiens, UniProt Q9Y6W6); conditions: molar ratio 1:5
T6 construct: MKP5(139–287) (MKP5^KBD); made in house; host or cells: Escherichia coli BL21(DE3)
T6 sequence (Q9Y6W6 139-287): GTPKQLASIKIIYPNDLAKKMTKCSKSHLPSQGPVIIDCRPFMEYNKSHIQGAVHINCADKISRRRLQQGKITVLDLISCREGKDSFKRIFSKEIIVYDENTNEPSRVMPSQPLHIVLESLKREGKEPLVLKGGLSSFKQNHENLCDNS
Description: as §1

`O=C1/C(=C/c2ccccc2)C(NC2CCCCC2)c2ccccc21` (stereo not shown) [BCI, (E)-2-benzylidene-3-(cyclohexylamino)-2,3-dihydro-1H-inden-1-one] was tested, and the “perturbation of NMR spectrum” value (MKP2^KBD) was “Peak broadening was detected”, the “perturbation of NMR spectrum” value (MKPX^KBD) was “Significant peak broadening” and the “perturbation of NMR spectrum” value (MKP4^KBD) was “No significant NMR peak perturbation”. The “perturbation of NMR spectrum” value (MKP3^CD; excess BCI, without DMSO (low-activity state)) was “no detectable interaction”, the “perturbation of NMR spectrum” value (MKP3^CD; with 25% DMSO (high-activity state)) was “failed to perturb the spectrum” and the “perturbation of NMR spectrum” value (MKP1^KBD) was “No significant NMR peak perturbation”. The “perturbation of NMR spectrum” value (MKP5^KBD) was “Significant peak broadening”.
